# Test results from ChEMBL document CHEMBL6103553, “Small molecule inhibitors targeting PD-L1, CTLA4, VISTA, TIM-3, and LAG3 for cancer immunotherapy (2020-2024)” (Eur J Med Chem, 2025).
# How the values were obtained:
# [1] = Inhibition of his-tagged CTLA-4/CD80 (unknown origin) protein-protein interaction by TR-FRET assay; design: species or system Homo sapiens
# [2] = Inhibition of CTLA-4/CD80 (unknown origin) protein-protein interaction; design: species or system Homo sapiens
# [3] = target: Programmed cell death protein 1/Programmed cell death 1 ligand 1 (Homo sapiens, UniProt Q9NZQ7); experiment: Inhibition of human PD-1/PD-L1 incubated for 1 hr by HTRF assay; type: protein-complex assay
# Chain of Programmed cell death protein 1/Programmed cell death 1 ligand 1 (Q15116 whole entry, the tested form may be a part): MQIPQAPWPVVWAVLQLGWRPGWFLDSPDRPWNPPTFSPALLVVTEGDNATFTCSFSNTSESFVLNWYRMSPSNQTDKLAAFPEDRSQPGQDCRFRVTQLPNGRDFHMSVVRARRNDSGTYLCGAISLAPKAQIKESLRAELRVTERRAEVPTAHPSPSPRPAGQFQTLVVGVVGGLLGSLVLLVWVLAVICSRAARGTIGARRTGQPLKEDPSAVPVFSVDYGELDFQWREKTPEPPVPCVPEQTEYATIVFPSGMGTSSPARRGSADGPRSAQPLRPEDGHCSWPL
# Chain of Programmed cell death protein 1/Programmed cell death 1 ligand 1 (Q9NZQ7 whole entry, the tested form may be a part): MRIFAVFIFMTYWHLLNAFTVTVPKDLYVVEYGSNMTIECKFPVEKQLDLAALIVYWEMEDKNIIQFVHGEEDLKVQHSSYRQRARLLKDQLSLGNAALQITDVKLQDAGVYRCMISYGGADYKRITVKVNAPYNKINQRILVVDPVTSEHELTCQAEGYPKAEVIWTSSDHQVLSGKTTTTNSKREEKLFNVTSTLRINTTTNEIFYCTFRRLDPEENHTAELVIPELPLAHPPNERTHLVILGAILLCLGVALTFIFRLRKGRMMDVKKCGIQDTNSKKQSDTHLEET
# [4] = target: T1, V-type immunoglobulin domain-containing suppressor of T-cell activation (Homo sapiens, UniProt Q9H7M9); experiment: Inhibition of N-terminal His-tagged human recombinant VISTA (1 to 161 residues) transfected in human Expi293 cells incubated for 60 mins by ELISA analysis; type: cell-based
# T1 sequence (Q9H7M9 whole entry): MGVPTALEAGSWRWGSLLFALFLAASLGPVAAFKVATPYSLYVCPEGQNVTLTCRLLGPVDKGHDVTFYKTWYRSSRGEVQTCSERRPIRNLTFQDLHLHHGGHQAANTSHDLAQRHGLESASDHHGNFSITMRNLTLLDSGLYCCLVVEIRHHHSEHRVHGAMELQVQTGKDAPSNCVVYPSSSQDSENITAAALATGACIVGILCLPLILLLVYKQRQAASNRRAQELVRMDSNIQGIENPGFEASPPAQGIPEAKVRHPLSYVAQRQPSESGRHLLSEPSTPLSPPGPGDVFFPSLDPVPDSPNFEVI
# [5] = Inhibition of VISTA/VSIG-3 (unknown origin) protein-protein interaction by TR-FRET assay
# [6] = target: T1, V-type immunoglobulin domain-containing suppressor of T-cell activation; experiment: biochemical
# Description: Binding affinity to N-terminal His-tagged human recombinant VISTA (1 to 161 residues) transfected in human Expi293 cells assessed as dissociation constant incubated for 60 mins by SPR assay
# [7] = Induction of PD-L1 degradation in human NCI-H460 cells transfected with siRNA ABCB1 incubated for 2 hrs by Western blot analysis; conditions: NCI-H460, 2 h
# [8] = Inhibition of LAG-3/MHC-II (unknown origin) interaction by TR-FRET assay; design: species or system Homo sapiens
# [9] = Binding affinity to PD-L1 (unknown origin) assessed as dissociation constant; design: species or system Homo sapiens
# [10] = Inhibition of PD-L1 (unknown origin) by FRET assay; design: species or system Homo sapiens
# [11] = Inhibition of human PD-L1 by HTRF assay
# Tubulin = experiment: Inhibition of tubulin polymerization (unknown origin); type: protein-complex assay, Homo sapiens
# [12] = Stability in mouse plasma assessed as half life; type: ADME, cell-free
# MC-38 = experiment: Antitumor activity against mouse MC-38 cells implanted in C57BL/6N mouse assessed as reduction in tumor volume at 10 mg/kg, ip in presence of PD-L1 and measured after 10 days relative to control; type: functional; design: scale not given: the % may be the effect or the level left; conditions: time 10 day
# [13] = Inhibition of PD-L1 (unknown origin) by HTRF assay; design: species or system Homo sapiens
compound,measurement,setting,value
Clc1ccc(C2=NN(c3ccccc3)C(c3ccco3)C2)cc1 (centres undefined),IC50,[1],1000 nM
COc1ccccc1C1CN(c2ccccc2)N=C1c1cccs1 (centres undefined),IC50,[2],1900 nM
Cc1nc(C)c(C(=O)NNC(=O)Cc2ccccc2)cc1C(=O)NNC(=O)Cc1ccccc1,IC50,[3],1.09 nM
COc1ccc(-c2nc(N)nc(-c3cc(C)ccc3O)c2Cl)cc1,IC50,[3],2.44 nM
CN(C)c1n/c(=N/Cc2cccs2)ss1,IC50,[4],6400 nM
CN(C)c1n/c(=N/Cc2ccco2)ss1,IC50,[4],4500 nM
same,IC50,[5],9700 nM
same,Kd,[6],6200 nM
C[C@@]1(C(=O)O)CC[C@]2(C)CC[C@]3(C)C4=CC(=O)c5c(cc(O)c(O)c5C=O)[C@]4(C)CC[C@@]3(C)[C@@H]2C1,DC50,[7],< 5000 nM
Clc1ccc(C2CN(c3ccccc3)N=C2c2ccco2)cc1 (centres undefined),IC50,[1],4100 nM
Cc1cc(C(=O)COc2ccc(NC(=O)c3ccco3)cc2)c(C)n1-c1ccccc1,IC50,[8],8300 nM
CC(=O)Nc1ccc(OCC(=O)c2cc(C)n(C(C)C)c2C)cc1,IC50,[8],> 50000 nM
Cc1cc(C(=O)COc2ccc(NC(=O)c3ccco3)cc2)c(C)n1Cc1ccccc1,IC50,[8],4200 nM
Cc1c(-c2ccccc2)ccc2nc(-c3ccc(CNCCO)cc3)[nH]c12,IC50,[4],1100 nM
Cc1cc(O)n(-c2ccccc2)n1,Kd,[9],98 nM
same,IC50,[10],92 nM
O=C(CSc1ccccc1Cl)N1N=C(c2cccs2)CC1c1ccco1 (centres undefined),IC50,[2],1300 nM
Oc1cc(-c2cccc(C(F)(F)F)c2)nn1-c1ccccn1,Kd,[9],1200 nM
same,IC50,[10],1100 nM
Clc1ccc(C2=NN(Cc3ccccc3)CC2c2ccccc2)cc1 (centres undefined),IC50,[2],970 nM
COc1ccc(/C=C\c2cc(OC)c(OC)c(OC)c2)cc1OCc1ccc(CC=O)cc1,IC50,[11],48.8 nM
same,IC50,Tubulin,16100 nM
N=c1[nH]c2c3c(c4[nH]c(=N)[nH]c4c2[nH]1)[C@@H](CNC(=O)c1cc(Br)c(Br)[nH]1)[C@@H]3CNC(=O)c1cc(Br)c(Br)[nH]1,DC50,[7],< 5000 nM
O=[N+]([O-])c1cccc(/C=N/OCc2coc(-c3cccc(F)c3)n2)c1,IC50,[1],5160 nM
Cc1c(COc2ccc(CN3CCCCC3C(=O)NCCOCCNC(=O)CCCCCn3cc(CCCC(=O)NCCCC[C@@H]4NC(=O)[C@@H](Cc5ccc(O)cc5)NC(=O)[C@H](CC(=O)O)NC(=O)CNC(=O)[C@H](CCCNC(=N)N)NC4=O)nn3)cc2Br)cccc1-c1ccccc1 (some centres undefined),DC50,[7],< 100 nM
Oc1cc(-c2ccc(Cl)cc2Cl)nn1-c1ccccn1,Kd,[9],110 nM
same,IC50,[10],77 nM
Cc1cccc2nc(-c3cccc(CNCCO)c3)[nH]c12,IC50,[4],256000 nM
COc1ccc(-c2nc(CO/N=C/c3ccccc3Cl)co2)cc1,IC50,[2],1500 nM
Cc1c(COc2ccc(CN3CCCCC3C(=O)NCCCn3cc(CCCC(=O)NCCCC[C@@H]4NC(=O)[C@@H](Cc5ccc(O)cc5)NC(=O)[C@H](CC(=O)O)NC(=O)CNC(=O)[C@H](CCCNC(=N)N)NC4=O)nn3)cc2Br)cccc1-c1ccccc1 (some centres undefined),DC50,[7],< 50000 nM
CCOC(=O)C1=C(COCCS)NC(C)=C(C(=O)OC)C1c1ccccc1Cl (centres undefined),DC50,[7],< 10000 nM
Cc1c(COc2ccc(CN3CCCCC3C(=O)NCCOCCOCCOCCNC(=O)CCCCCn3cc(CCCC(=O)NCCCC[C@@H]4NC(=O)[C@@H](Cc5ccc(O)cc5)NC(=O)[C@H](CC(=O)O)NC(=O)CNC(=O)[C@H](CCCNC(=N)N)NC4=O)nn3)cc2Br)cccc1-c1ccccc1 (some centres undefined),DC50,[7],< 100 nM
C/C(=N\OCC(=O)Nc1ccc(C)c(F)c1)c1nc(-c2ccccc2)[nH]c1C,IC50,[2],1400 nM
Oc1cc(-c2ccc(C(F)(F)F)cc2)nn1-c1ccccn1,Kd,[9],156 nM
same,IC50,[10],143 nM
same,half-life,[12],< 30 min
CCCCCN(CCCCC)C(C)C(=O)c1cc(C)c2ccc3cc(C(C)C)ccc3c2c1 (centres undefined),IC50,[3],96 nM
same,Activity,MC-38,93.6%
CCOC(=O)C(COC(=O)NCCSSCCNC(=O)O/N=C(\Nc1ccc(C)c(O)c1)c1nonc1N)NCc1cc(Cl)c(OCc2cccc(-c3ccccc3)c2Br)cc1OCc1ccnc(C#N)c1 (centres undefined),IC50,[13],< 100 nM
O=[N+]([O-])c1cccc(/C=N/OCc2csc(-c3ccccc3)n2)c1,IC50,[2],4500 nM
COc1ccc2cc3[n+](cc2c1OC)CCc1cc2c(cc1-3)OCO2 [BERBERINE CHLORIDE],DC50,[7],< 2000 nM
Cc1ccc([C@@H]2O[C@H](CO)[C@@H](O)[C@H](O)[C@H]2O)cc1Cc1ccc(-c2ccc(F)cc2)s1 [CANAGLIFLOZIN ANHYDROUS],DC50,[7],< 20000 nM
CN(C)C(=N)NC(=N)N [METFORMIN],DC50,[7],< 2000 nM
O[C@@H](COc1cccc2ncccc12)CN1CCN([C@@H]2c3ccccc3[C@@H]3[C@H](c4ccccc42)C3(F)F)CC1 [ZOSUQUIDAR],DC50,[7],< 10000 nM
